TGI data for 16 compounds are collected here from PubChem BioAssay (NCI).

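96-well plates; 48 h exposure; 5 concentrations. Endpoints by linear interpolation between flanking doses. Not reached: highest tested concentration assigned. TGI denotes the concentration required for complete inhibition of growth.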

Among the test systems are DLD-1 colon; DMS 114 small cell lung; CAKI-1 renal; M19-MEL melanoma; SR leukemia; NCI-H226 lung; SF-539 CNS; XF 498 CNS; KM20L2 colon; DMS 273 small cell lung; SN12C renal; LXFL 529 NSCLC; SNB-78 CNS; HOP-18 NSCLC; PC-3 prostate.
Holding throughout (test): NCI tumour cell line growth inhibition, 48 h

Turning to `CC[N+](CC)(CC)Cc1cn(S(=O)(=O)c2ccccc2)c2ccccc12`, the TGI with DLD-1 colon, in the test with DMS 114 small cell lung, with CAKI-1 renal, with M19-MEL melanoma, in the test on SR leukemia and in the test with NCI-H226 lung was > 100 µM throughout. Also, the TGI in the test on SF-539 CNS, with XF 498 CNS, with KM20L2 colon and in the test with DMS 273 small cell lung was > 100 µM throughout.
Regarding `Clc1ccc2c(Cl)ncnc2c1I`, the TGI with SN12C renal, in the test on DLD-1 colon, in the test with LXFL 529 NSCLC, in the test on DMS 114 small cell lung, in the test on CAKI-1 renal and with M19-MEL melanoma was > 100 µM each time. Also, the TGI was > 100 µM in the test with SR leukemia; 93.3 µM with NCI-H226 lung; > 100 µM in the test on XF 498 CNS; > 100 µM in the test with KM20L2 colon; > 100 µM with DMS 273 small cell lung.
For `Cc1nc2c(s/c(=N\N)n2-c2ccccc2)c(=O)[nH]1`, the TGI with SN12C renal, in the test with DLD-1 colon, in the test on LXFL 529 NSCLC, in the test with DMS 114 small cell lung, in the test with CAKI-1 renal and in the test on M19-MEL melanoma was > 100 µM each time. The TGI in the test on SR leukemia, in the test with NCI-H226 lung, in the test with SNB-78 CNS, with SF-539 CNS, in the test with XF 498 CNS and in the test on KM20L2 colon was > 100 µM throughout. In addition, the TGI with DMS 273 small cell lung was > 100 µM.
`O=C(CSc1nnc(-c2ccc(N=Cc3ccc(Cl)cc3)cc2)o1)Nc1ccccc1`: the TGI in the test with SN12C renal, in the test with LXFL 529 NSCLC, in the test on DMS 114 small cell lung, in the test on M19-MEL melanoma, in the test with SR leukemia and in the test with NCI-H226 lung was > 100 µM throughout. For the same compound, the TGI in the test on SNB-78 CNS was > 100 µM; in the test on HOP-18 NSCLC it was > 100 µM; with XF 498 CNS it was > 100 µM; in the test on KM20L2 colon, > 100 µM; in the test with DMS 273 small cell lung, 70.6 µM.
`CN(C)Cc1cc(C(=O)/C=C/c2c(Cl)cccc2Cl)cc(CN(C)C)c1O`: the TGI is 21 µM in the test on SN12C renal; 19 µM with PC-3 prostate; 6.74 µM with CAKI-1 renal; 22.6 µM with SR leukemia; 32.4 µM with NCI-H226 lung; 34.4 µM in the test on SF-539 CNS.
For the compound `CC(C)CC(=O)OC[n+]1cccc(-c2c(COC(=O)NC(C)C)c(COC(=O)NC(C)C)c3n2CCC3)c1`, the TGI in the test on SN12C renal was > 100 µM; with PC-3 prostate, > 100 µM; in the test with CAKI-1 renal, 73.9 µM; with SR leukemia, > 100 µM; with NCI-H226 lung it was > 100 µM; in the test on SF-539 CNS, > 100 µM.
As to `O=S(=O)([N-]c1nc2ccccc2nc1-[n+]1ccccc1)c1ccccc1`, the TGI is > 100 µM in the test on SN12C renal; > 100 µM in the test with PC-3 prostate; > 100 µM in the test with CAKI-1 renal; 77.3 µM in the test with SR leukemia; > 100 µM with NCI-H226 lung; > 100 µM with SF-539 CNS.
`CCCN(CCC)C(=S)N/N=C/c1cccc(C)n1`: the TGI in the test on SN12C renal was found to be 3.13 µM; in the test with PC-3 prostate it was 62.9 µM; in the test with CAKI-1 renal it was 4.65 µM; in the test with SR leukemia, 0.376 µM; in the test with NCI-H226 lung it was 0.837 µM; in the test with SF-539 CNS, 0.545 µM.
As to `[N-]=[N+]=Nc1cc(=O)n(-c2ccccc2)c(=O)n1-c1ccccc1`, the TGI in the test with SN12C renal, in the test with PC-3 prostate, in the test with CAKI-1 renal, with SR leukemia, in the test with NCI-H226 lung and in the test on SF-539 CNS was > 100 µM throughout.
With `NC(=O)CC1(O)C=CC(=O)C=C1`, the TGI with SN12C renal, with PC-3 prostate, with CAKI-1 renal, with SR leukemia, with NCI-H226 lung and with SF-539 CNS was > 100 µM in each case.
As for `COc1c(C(CC(C)C)OC(C)=O)ccc2c1C(=O)OCc1cc(C)cc(O)c1O2` (centres undefined), the TGI was 27.2 µM with SN12C renal; 21.6 µM in the test with PC-3 prostate; 32.2 µM with CAKI-1 renal; > 100 µM in the test on SR leukemia; 30 µM with NCI-H226 lung; 32.9 µM in the test with SF-539 CNS.
Take `O=c1[nH]c2nccn2c(Cl)c1Br`: the TGI in the test on SN12C renal is 67.5 µM; in the test with PC-3 prostate, > 100 µM; in the test on CAKI-1 renal, 40.7 µM; in the test with SR leukemia it was 48.7 µM; in the test on NCI-H226 lung, 89.4 µM; with SF-539 CNS it was > 100 µM.
For `COC(=O)C1=C(C(=O)OC)C(C(=O)c2ccccc2)N2N=C(c3ccc(Cl)cc3)C=CC12` (centres undefined), the TGI with SN12C renal is > 100 µM; with PC-3 prostate it was > 100 µM; with CAKI-1 renal, > 100 µM; in the test on SR leukemia, > 100 µM; with NCI-H226 lung, 66.1 µM; with SF-539 CNS, > 100 µM.
For `CC(=O)NNc1nc(C)c(C(/C=C/c2ccccc2O)=N/NC(=O)c2ccncc2)s1`, the TGI in the test on SN12C renal, in the test on PC-3 prostate, in the test on CAKI-1 renal, with SR leukemia, in the test on NCI-H226 lung and with SF-539 CNS was > 100 µM in each case.
In the case of `Cc1cccc(NC(=O)CSc2nnc(Cc3ccccc3)o2)c1`, the TGI with SN12C renal, with DLD-1 colon, with LXFL 529 NSCLC, in the test with DMS 114 small cell lung, with CAKI-1 renal and in the test with NCI-H226 lung was > 100 µM each time. Moreover, the TGI in the test with SNB-78 CNS, with HOP-18 NSCLC, in the test with SF-539 CNS, with KM20L2 colon and in the test with DMS 273 small cell lung was > 100 µM in each case.
Turning to `Cc1nc(Nc2ccccc2)sc1C(=O)NNC(N)=O`, the TGI in the test on SN12C renal, in the test on DLD-1 colon, in the test on LXFL 529 NSCLC, with DMS 114 small cell lung, in the test with CAKI-1 renal and with M19-MEL melanoma was > 100 µM throughout. For the same compound, the TGI in the test on NCI-H226 lung, in the test with SNB-78 CNS, in the test with HOP-18 NSCLC, in the test on SF-539 CNS, in the test with XF 498 CNS and in the test on KM20L2 colon was > 100 µM each time. Besides, in the test with DMS 273 small cell lung, the TGI was > 100 µM.
